Results: US20230340498A1, “COMPOSITIONS AND METHODS FOR INDUCIBLE ALTERNATIVE SPLICING REGULATION OF GENE EXPRESSION” (The Children's Hospital of Philadelphia, priority 2020, published 2023)

Assays:
SF3B3-on-eGFP cassette = SF3B3-on-eGFP cassette expression in HEK293 cells; assay type: cell-based, Human; details: LMI070 vs DMSO
Description: Cell culture, transfection, and LMI070/RG7800 treatment. Human embryonic kidney (HEK293) cells (obtained from CHOP Research Vector Core stock) were maintained in DMEM media containing 10% Fetal Bovine Serum (FBS), 1% L-Glutamine and 1% penicillin/streptomycin at 37° C. with 5% CO2. Cells were cultured in 24 well plates and transfected at 80-90% confluence using Lipofectamine 2000 transfection reagent, according to the manufacturer’s protocol. For all experiments, 4 hours after plasmid transfection, cells were treated with LMI070 (MedChemExpress, HY-19620, suspended in DMSO) or RG7800 (MedChemExpress, HY-101792A, suspended in H2O) at the indicated concentrations. Cells were tested for mycoplasma by Research Vector Core. None of the cells used in the study were listed in ICLAC database of commonly misidentified cell lines.
Next, a series of switch-on cassettes were developed from the top 4 LMI070-responsive exons found in the RNA-Seq dataset. […] HEK293 cells were transfected with the candidate cassettes, treated with LMI070, and luciferase activity or eGFP expression determined 24 h later. […] Similarly, eGFP expression was only detected in cells transfected with the SF3B3-on-eGFP cassette in response to LMI070 treatment (FIG. 3D).

HEK293 cells = test: Differential gene expression analysis (DESeq2) of LMI070 vs DMSO treated HEK293 cells; assay type: cell-based, Human
Description: Differential gene expression analysis was performed using DESeq2 to compare samples from the LMI070 and DMSO conditions (Love et al., 2014). To visualize the abundance of meaningfully differentially expressed genes, a volcano plot was generated with a .05 Benjamini-Hochberg adjusted p-value threshold and a 0.1 log fold change threshold.
The pseudoexons identified in LMI070 treated samples share a strong 3′ AGAGUA motif consistent with the previously identified U1 RNA binding site targeted by LMI070 (FIG. 2C) (Cheung et al., 2018). To experimentally validate the identified LMI070 induced splicing events, primer pairs binding the flanking exons of the top 5 candidate genes (FIGS. 2A and 2F-2J) were generated. […] The impact of LMI070 treatment on global gene expression was evaluated by assessing differential expression analysis.

AAV8.Xon.Epo = test: In vivo induction of AAV8.Xon.Epo in C57Bl6 mice; details: 24 h after the last LMI070 dose
Description: To assess the applicability of Xon for liver targeted therapies, AAV8.Xon.Epo and AAV8.Xon.SaCas9 vectors were generated and delivered to C57Bl6 and Ai14 reporter mice, respectively (FIGS. 7A, 7C, 7F).

[1] = tested on: Ai14 reporter genomic locus; test: In vivo AAVPHPeB SF3B3.Xon SaCas9 editing of Ai14 reporter locus in brain; details: Ai14 mice, tdTomato expression
Description: To assess the applicability of Xon for brain targeted therapies, the SF3B3.Xon was packaged into AAVPHPeB vector to control the expression of SaCas9 protein and delivered to transgenic Ai14 reporter mice and BacHD mice (FIGS. 9A, 9C).

[2] = p < 0.05, Benjamin-Hochberg correction, LMI070 vs DMSO

Compound: CC1(C)CC(Oc2ccc(-c3ccc(-c4cn[nH]c4)cc3O)nn2)CC(C)(C)N1 [LMI070, 5-(1H-Pyrazol-4-yl)-2-(6-((2,2,6,6-tetramethylpiperidin-4-yl)oxy)pyridazin-3-yl)phenol]
- eGFP expression from SF3B3-on-eGFP cassette (SF3B3-on-eGFP cassette): only detected
- downregulated genes after filtering out low fold-change values (HEK293 cells; filtered <0.1 fold): 9
- upregulated genes after filtering out low fold-change values (HEK293 cells; filtered <0.1 fold): 5
- downregulated genes passing the threshold for significance (HEK293 cells; [2]): 24
- upregulated genes passing the threshold for significance (HEK293 cells; [2]): 6
- induction of Mouse Epo and hematocrit levels (AAV8.Xon.Epo): Induction of Mouse Epo and hematocrit levels were detected
- editing of the Ai14 reporter genomic locus (brain) [1]: only observed on mice treated with LMI070
